Molecules are shown by their SMILES.

For one assay, the system named is LRP-Gal4/VP16. As to the kind of experiment: LRP-Gal4/VP16 luciferase reporter gene assay in transfected 293 cells. The format is cell-based, human. The procedure:
(§1) Cell Culture and transfection of 293 cells: The human embryonic kidney cell line HEK 293 (CRL-1573, ATCC) was maintained in monolayer culture at 37° C. under a 8% CO2 atmosphere. On day 0 cells were set up at a density of 5×105 per 60 mm dish in Dulbecco's Modified Eagle's Medium (low glucose) containing 100 U/ml penicillin, 100 ug/ml streptomycin sulfate and 10% (v/v) FCS. On day one cells were transfected by calcium phosphate precipitation (MBS Kit™, Stratagene, La Jolla, Calif., used according to manufacturers' instructions) with 9 ug of the pG5 E1B-Luc plasmid, 0.5 ug of pCMV-b-Gal for internal control of transfection efficiency, the respective receptor construct and expression vectors for different adapter proteins or other components as indicated in the text. On day two treatment with TPA or other reagents was started as described above and cells were harvested 24 h to 48 h later.
Reporter gene assays: 293 cells were harvested for reporter gene assays 48 h after transfection. Their culture medium was removed and the cells were washed once with PBS. After addition of 400 ul “Reporter Lysis Buffer” (Promega, Madison, Wis.) per 60mm dish cells were processed according to manufacturers' instructions. Luciferase gene expression was analyzed using the “Luciferase Assay System” (Promega, Madison, Wis.). A 10 s integral measurement of light emission from each reaction mixture was performed in a tube luminometer (Octopump II, MOM Instruments).
β-Gal assays for internal control of […] were carried out with an aliquot of the cell lysates prepared for the luciferase assay using the ‘Chemiluminescent b-Gal Detection Kit” (Clontech, Palo Alto, Calif.). Normalization of luciferase activity to b-Gal activity was done by dividing RLU values obtained with the first assay by those from the latter reaction. All transfections for reporter gene assays were repeated in at least two independent experiments.
Experimental Strategy. The Gal4/VP16 fusion protein, which consists of the DNA binding domain of the yeast Gal4 transcription factor and of the transactivating domain of the Herpes simplex virus protein VP16, is able to drive transcription from a luciferase reporter plasmid that contains five Gal4 binding elements in front of the adenoviral E1B minimal promoter and the firefly luciferase gene. […]
Treatment of 293 Cells with the Proteasome Inhibitor Lactacystin Stabilizes the Intracellular LRP-Cleavage Product. […] Subsequently cell lysates were prepared and examined for luciferase activity. β-Gal activity was measured to correct for transfection efficiency. […]

Assay [1] relates to LRP. As to the kind of experiment: Endogenous LRP levels by Western blotting in MEF-1 cells. The format is cell-based, mouse. The procedure:
(§2) SDS-Page and immunoblot analysis: SDS-Page and immunoblotting were performed according to standard procedures. Briefly, equal amounts of protein as determined with the Coomassie Plus Protein Reagent (Pierce, Rockford, Ill.) were loaded on 4–12% SDS PA gels. After electrophoresis and protein transfer on a PVDF membrane immunoblot, analysis was carried out with rabbit polyclonal antibodies against a C-terminal fragment of LRP. Bound antibodies were visualized with peroxidase-conjugated anti-rabbit IgG by using the SuperSignal CL-HRP Substrate (Pierce, Rockford, Ill.) according to the manufacturer's instructions.
(§3) Then cell lysates were prepared and analyzed by Western Blotting. The antibody used for immunostaining is directed against LRP's C-terminus.
Decrease of LRP Levels after TPA Treatment is Time-Dependent. […] Then cell lysates were prepared and used for SDS-PAGE and Western Blotting. LRP was stained with an antibody directed against its cytoplasmic tail.

In the next assay the test system is pMstGV-APP construct. As to the kind of experiment: APP-Gal4/VP16 (pMstGV-APP) luciferase reporter gene assay in transfected 293 cells. The format is cell-based, human. The conditions noted are these: 100 nM TPA for 24 h. As for the experimental part: as §1
(§4) Reporter gene assays: 293 cells were harvested for reporter gene assays 48 h after transfection. Their culture medium was removed and the cells were washed once with PBS. After addition of 400 ul “Reporter Lysis Buffer” (Promega, Madison, Wis.) per 60mm dish cells were processed according to manufacturers' instructions. Luciferase gene expression was analyzed using the “Luciferase Assay System” (Promega, Madison, Wis.). […]

Assay [2] deals with LRP. Put plainly: Endogenous LRP levels by Western blotting in untransfected 293 cells. It counts as cell-based, human. The procedure: as §2, §3
TPA Treatment Leads To Decreased LRP Levels in 293 Cells. […] Then cell lysates were prepared and analyzed by Western Blotting. The antibody used for immunostaining is directed against LRP's C-terminus.

Another assay concerns pMstGV-LDL-R construct. Put plainly: LDL-R-Gal4/VP16 (pMstGV-LDL-R) luciferase reporter gene assay in transfected 293 cells. It counts as cell-based, human. The conditions noted are these: 100 nM TPA for 24 h. As for the experimental part:
as §1, §4

As to `CC(=O)N[C@@H](CSC(=O)[C@]1([C@@H](O)C(C)C)NC(=O)[C@H](C)[C@@H]1O)C(=O)O` [lactacystin, Lactacystin], the “luciferase signal enhancement (stabilization of intracellular LRP-cleavage product)” value with LRP-Gal4/VP16 (10 uM lactacystin for 24 h) and in the assay with LRP-Gal4/VP16 (50 uM lactacystin for 24 h) was “about 25 fold” in each case.
`CCCCCCCCCCCCCC(=O)O[C@@H]1[C@@H](C)[C@@]2(O)[C@@H](C=C(CO)C[C@]3(O)C(=O)C(C)=C[C@@H]23)[C@@H]2C(C)(C)[C@]12OC(C)=O` [TPA, Phorbol 12-myristate 13-acetate]: the “effect on endogenous LRP levels” value is given as “Lowers Endogenous LRP Levels” in the assay on LRP [1] (100 nM TPA for 24 h or time indicated) and “Lowers Endogenous LRP Levels” in the assay on LRP [2] (100 nM TPA for 24 h or time indicated, untransfected 293 cells). The “decrease of LRP levels, time course” value with LRP [1] (TPA for 0.5, 1.5, 5, 5, 6 and 24 h) was “Time-Dependent”. Moreover, the “luciferase activity, elevation under stimulated versus unstimulated conditions” value in the assay on LRP-Gal4/VP16 (100 nM TPA for 24 h, pcDNA3.1-LRP-Gal4/VP16) was “up to 10 fold”. Besides, the “corrected luciferase activity (intracellular/intramembraneous LRP cleavage) versus unstimulated cells” value with LRP-Gal4/VP16 (100 nM TPA, time periods of 12, 16, 20 and 24, pcDNA3.1-LRP-Gal4/VP16) was “linear increase”. In addition, the “luciferase activity, stimulated versus unstimulated” value is “equivalent elevated activity under both stimulated and unstimulated conditions” in the assay on pMstGV-APP construct; “negligible activity under stimulated and unstimulated conditions” in the assay with pMstGV-LDL-R construct. Moreover, in the assay with LRP [2] (100 nM TPA, various time periods up to 48 h, Western blot, antibody against LRP C-terminus, text names 293 and MEF-1 cells, heading 293), the “decrease of cellular LRP levels” value is at most 90%.

For the origin of these results see US7192714B2, “LDL receptor signaling assays” (Board of Regents, The University of Texas System, priority 2001, dated 2007).
